Reference: patent US20140343000A1 (priority 2011, published 2014)
pEC50: −log10 of the molar value.

These compounds were tested on recombinant NL4-3 virus (Renilla luciferase in nef, Gag P373S; NLRluc) in MT-2 cells (assay: whole plant or invertebrate). Settings: Renilla, NL43, luciferase activity in cells infected for 4-5 days with NLRluc recombinants, serial dilutions of inhibitor; class symbols (key in Table 1); read-out: EC50.
Type: cell-based, HIV
Method in brief: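 First, reporter virus was generated in 293T cells and titered on MT-2 cells. Next, MT-2 cells were infected in the presence of serial compound dilutions for 4-5 days. Finally, cells were lysed and luciferase activity was measured to quantify inhibition.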
For `C=C(C)[C@@H]1CC[C@]2(NCCS(=O)(=O)CCO)CC[C@]3(C)[C@H](CC[C@@H]4[C@@]5(C)CC=C(c6ccc(C(=O)O)cc6)C(C)(C)[C@@H]5CC[C@]43C)[C@@H]12` [Example 135, 4-((1R,3aS,5aR,5bR,7aR,11aS,11bR,13aR,13bR)-3a-(2-(2-hydroxyethylsulfonyl)ethylamino)-5a,5b,8,8,11a-pentamethyl-1-(prop-1-en-2-yl)-2,3,3a,4,5,5a,5b,6,7,7a,8,11,11a,11b,12,13,13a,13b-octadecahydro-1H-cyclopenta[a]chrysen-9-yl)benzoic acid], the pEC50 was greater than 7.00. Work on `C=C(C)[C@@H]1CC[C@]2(NCCS(C)(=O)=O)CC[C@]3(C)[C@H](CC[C@@H]4[C@@]5(C)CC=C(c6ccc(C(=O)O)cc6)C(C)(C)[C@@H]5CC[C@]43C)[C@@H]12` [Example 136, 4-((1R,3aS,5aR,5bR,7aR,11aS,11bR,13aR,13bR)-5a,5b,8,8,11a-pentamethyl-3a-(2-(methylsulfonyl)ethylamino)-1-(prop-1-en-2-yl)-2,3,3a,4,5,5a,5b,6,7,7a,8,11,11a,11b,12,13,13a,13b-octadecahydro-1H-cyclopenta[a]chrysen-9-yl)benzoic acid] yielded a pEC50 greater than 7.00. `C=C(C)[C@@H]1CC[C@]2(NCCN3CCS(=O)(=O)CC3)CC[C@]3(C)[C@H](CC[C@@H]4[C@@]5(C)CC=C(c6ccc(C(=O)O)cc6)C(C)(C)[C@@H]5CC[C@]43C)[C@@H]12` [Example 137, 4-((1R,3aS,5aR,5bR,7aR,11aS,11bR,13aR,13bR)-3a-((2-(1,1-dioxido-4-thiomorpholinyl)ethyl)amino)-1-isopropenyl-5a,5b,8,8,11a-pentamethyl-2,3,3a,4,5,5a,5b,6,7,7a,8,11,11a,11b,12,13,13a,13b-octadecahydro-1H-cyclopenta[a]chrysen-9-yl)benzoic acid] gave a pEC50 greater than 7.00. `C=C(C)[C@@H]1CC[C@]2(NCCNC(=O)OC(C)(C)C)CC[C@]3(C)[C@H](CC[C@@H]4[C@@]5(C)CC=C(c6ccc(C(=O)O)cc6)C(C)(C)[C@@H]5CC[C@]43C)[C@@H]12` [Example 138, 4-((1R,3aS,5aR,5bR,7aR,11aS,11bR,13aR,13bR)-3a-(2-(tert-butoxycarbonylamino)ethylamino)-5a,5b,8,8,11a-pentamethyl-1-(prop-1-en-2-yl)-2,3,3a,4,5,5a,5b,6,7,7a,8,11,11a,11b,12,13,13a,13b-octadecahydro-1H-cyclopenta[a]chrysen-9-yl)benzoic acid] showed a pEC50 greater than 7.00. Work on `C=C(C)[C@@H]1CC[C@]2(NCCN)CC[C@]3(C)[C@H](CC[C@@H]4[C@@]5(C)CC=C(c6ccc(C(=O)O)cc6)C(C)(C)[C@@H]5CC[C@]43C)[C@@H]12` [Example 139, 4-((1R,3aS,5aR,5bR,7aR,11aS,11bR,13aR,13bR)-3a-(2-aminoethylamino)-5a,5b,8,8,11a-pentamethyl-1-(prop-1-en-2-yl)-2,3,3a,4,5,5a,5b,6,7,7a,8,11,11a,11b,12,13,13a,13b-octadecahydro-1H-cyclopenta[a]chrysen-9-yl)benzoic acid] yielded a pEC50 greater than 7.00. `C=C(C)[C@@H]1CC[C@]2(NCCN(CCC(=O)O)CCC(=O)O)CC[C@]3(C)[C@H](CC[C@@H]4[C@@]5(C)CC=C(c6ccc(C(=O)O)cc6)C(C)(C)[C@@H]5CC[C@]43C)[C@@H]12` [Example 141, 3,3′-(2-((1R,3aS,5aR,5bR,7aR,11aS,11bR,13aR,13bR)-9-(4-carboxyphenyl)-5a,5b,8,8,11a-pentamethyl-1-(prop-1-en-2-yl)-2,3,3a,4,5,5a,5b,6,7,7a,8,11,11a,11b,12,13,13a,13b-octadecahydro-1H-cyclopenta[a]chrysen-3a-ylamino)ethylazanediyl)dipropanoic acid] showed a pEC50 greater than 7.00. Compound `C=C(C)[C@@H]1CC[C@]2(NCCNCCC(=O)N(C)C)CC[C@]3(C)[C@H](CC[C@@H]4[C@@]5(C)CC=C(c6ccc(C(=O)O)cc6)C(C)(C)[C@@H]5CC[C@]43C)[C@@H]12` [Example 142, 4-((1R,3aS,5aR,5bR,7aR,11aS,11bR,13aR,13bR)-3a-(2-(3-(dimethylamino)-3-oxopropylamino)ethylamino)-5a,5b,8,8,11a-pentamethyl-1-(prop-1-en-2-yl)-2,3,3a,4,5,5a,5b,6,7,7a,8,11,11a,11b,12,13,13a,13b-octadecahydro-1H-cyclopenta[a]chrysen-9-yl)benzoic acid] has a pEC50 greater than 7.00. Compound `C=C(C)[C@@H]1CC[C@]2(NCCCNC(=O)OC(C)(C)C)CC[C@]3(C)[C@H](CC[C@@H]4[C@@]5(C)CC=C(c6ccc(C(=O)O)cc6)C(C)(C)[C@@H]5CC[C@]43C)[C@@H]12` [Example 143, 4-((1R,3aS,5aR,5bR,7aR,11aS,11bR,13aR,13bR)-3a-(3-(tert-butoxycarbonylamino)propylamino)-5a,5b,8,8,11a-pentamethyl-1-(prop-1-en-2-yl)-2,3,3a,4,5,5a,5b,6,7,7a,8,11,11a,11b,12,13,13a,13b-octadecahydro-1H-cyclopenta[a]chrysen-9-yl)benzoic acid] has a pEC50 greater than 7.00. With `C=C(C)[C@@H]1CC[C@]2(NCCCN3CCS(=O)(=O)CC3)CC[C@]3(C)[C@H](CC[C@@H]4[C@@]5(C)CC=C(c6ccc(C(=O)O)cc6)C(C)(C)[C@@H]5CC[C@]43C)[C@@H]12` [Example 144, 4-[(1R,3aS,5aR,5bR,7aR,11aS,11bR,13aR,13bR)-3a-[[3-(1,1-dioxido-4-thiomorpholinyl)propyl]amino]-2,3,3a,4,5,5a,5b,6,7,7a,8,11,11a,11b,12,13,13a,13b-octadecahydro-5a,5b,8,8,11a-pentamethyl-1-(1-methylethenyl)-1H-cyclopenta[a]chrysen-9-yl]-benzoic acid] the pEC50 was greater than 7.00. `C=C(C)[C@@H]1CC[C@]2(NCC(=O)N(C)C)CC[C@]3(C)[C@H](CC[C@@H]4[C@@]5(C)CC=C(c6ccc(C(=O)O)cc6)C(C)(C)[C@@H]5CC[C@]43C)[C@@H]12` [Example 145, 4-((1R,3aS,5aR,5bR,7aR,11aS,11bR,13aR,13bR)-3a-(2-(dimethylamino)-2-oxoethylamino)-5a,5b,8,8,11a-pentamethyl-1-(prop-1-en-2-yl)-2,3,3a,4,5,5a,5b,6,7,7a,8,11,11a,11b,12,13,13a,13b-octadecahydro-1H-cyclopenta[a]chrysen-9-yl)benzoic acid] was tested, and the pEC50 was greater than 7.00. For `C=C(C)[C@@H]1CC[C@]2(NCCN3CCCC3=O)CC[C@]3(C)[C@H](CC[C@@H]4[C@@]5(C)CC=C(c6ccc(C(=O)O)cc6)C(C)(C)[C@@H]5CC[C@]43C)[C@@H]12` [Example 146, 4-((1R,3aS,5aR,5bR,7aR,11aS,11bR,13aR,13bR)-5a,5b,8,8,11a-pentamethyl-3a-(2-(2-oxopyrrolidin-1-yl)ethylamino)-1-(prop-1-en-2-yl)-2,3,3a,4,5,5a,5b,6,7,7a,8,11,11a,11b,12,13,13a,13b-octadecahydro-1H-cyclopenta[a]chrysen-9-yl)benzoic acid], the pEC50 was greater than 7.00. `C=C(C)[C@@H]1CC[C@]2(NCC(=O)N3CCCC3)CC[C@]3(C)[C@H](CC[C@@H]4[C@@]5(C)CC=C(c6ccc(C(=O)O)cc6)C(C)(C)[C@@H]5CC[C@]43C)[C@@H]12` [Example 147, 4-((1R,3aS,5aR,5bR,7aR,11aS,11bR,13aR,13bR)-5a,5b,8,8,11a-pentamethyl-3a-(2-oxo-2-(pyrrolidin-1-yl)ethylamino)-1-(prop-1-en-2-yl)-2,3,3a,4,5,5a,5b,6,7,7a,8,11,11a,11b,12,13,13a,13b-octadecahydro-1H-cyclopenta[a]chrysen-9-yl)benzoic acid] was tested, and the pEC50 was greater than 7.00. For `C=C(C)[C@@H]1CC[C@]2(NCC(=O)NC)CC[C@]3(C)[C@H](CC[C@@H]4[C@@]5(C)CC=C(c6ccc(C(=O)O)cc6)C(C)(C)[C@@H]5CC[C@]43C)[C@@H]12` [Example 148, 4-((1R,3aS,5aR,5bR,7aR,11aS,11bR,13aR,13bR)-5a,5b,8,8,11a-pentamethyl-3a-(2-(methylamino)-2-oxoethylamino)-1-(prop-1-en-2-yl)-2,3,3a,4,5,5a,5b,6,7,7a,8,11,11a,11b,12,13,13a,13b-octadecahydro-1H-cyclopenta[a]chrysen-9-yl)benzoic acid], the pEC50 was greater than 7.00. `C=C(C)[C@@H]1CC[C@]2(NCC(=O)N(CC)CC)CC[C@]3(C)[C@H](CC[C@@H]4[C@@]5(C)CC=C(c6ccc(C(=O)O)cc6)C(C)(C)[C@@H]5CC[C@]43C)[C@@H]12` [Example 149, 4-((1R,3aS,5aR,5bR,7aR,11aS,11bR,13aR,13bR)-3a-(2-(diethylamino)-2-oxoethylamino)-5a,5b,8,8,11a-pentamethyl-1-(prop-1-en-2-yl)-2,3,3a,4,5,5a,5b,6,7,7a,8,11,11a,11b,12,13,13a,13b-octadecahydro-1H-cyclopenta[a]chrysen-9-yl)benzoic acid] gave a pEC50 greater than 7.00. Work on `C=C(C)[C@@H]1CC[C@]2(NCC(=O)NC(C)C)CC[C@]3(C)[C@H](CC[C@@H]4[C@@]5(C)CC=C(c6ccc(C(=O)O)cc6)C(C)(C)[C@@H]5CC[C@]43C)[C@@H]12` [Example 150, 4-((1R,3aS,5aR,5bR,7aR,11aS,11bR,13aR,13bR)-3a-(2-(isopropylamino)-2-oxoethylamino)-5a,5b,8,8,11a-pentamethyl-1-(prop-1-en-2-yl)-2,3,3a,4,5,5a,5b,6,7,7a,8,11,11a,11b,12,13,13a,13b-octadecahydro-1H-cyclopenta[a]chrysen-9-yl)benzoic acid] yielded a pEC50 greater than 7.00.

Same assay, conditions: Renilla, NL43, luciferase activity in cells infected for 4-5 days with NLRluc recombinants, serial dilutions of inhibitor; numeric values; read-out: EC50
`C=C(C)[C@@H]1CC[C@]2(NCCNCCC(=O)O)CC[C@]3(C)[C@H](CC[C@@H]4[C@@]5(C)CC=C(c6ccc(C(=O)O)cc6)C(C)(C)[C@@H]5CC[C@]43C)[C@@H]12` [Example 140, 4-((1R,3aS,5aR,5bR,7aR,11aS,11bR,13aR,13bR)-3a-(2-(2-carboxyethylamino)ethylamino)-5a,5b,8,8,11a-pentamethyl-1-(prop-1-en-2-yl)-2,3,3a,4,5,5a,5b,6,7,7a,8,11,11a,11b,12,13,13a,13b-octadecahydro-1H-cyclopenta[a]chrysen-9-yl)benzoic acid] gave a pEC50 of 8.05.
